Experimental data reported in patent publication US9943076B2, “Boron added cell cryopreservation medium” (YEDITEPE ÜNIVERSITESI, priority 2013, dated 2018).

Key:
[1] = tested on: human tooth germ stem cells
Description: The intermediate concentrations to be applied on the cells were prepared in the cell culture medium and were applied on the human tooth germ stem cells.

[2] = tested on: human tooth germ stem cells; conditions: 20 μg/ml NaB + 5% Me2SO, thawed after long term freezing
[3] = tested on: human tooth germ stem cells; conditions: FIG. 2
Description: During the freezing process, different from the standard protocol, 20 μg/ml NaB was added to the cell cryopreservation medium. The control group was incubated by a standard cryopreservation medium. During freezing of the cells, different amounts of Me2SO (10%, 7%, 5% and 3% Me2SO) were added to the medium which contained 20% FBS (Fetal Bovine Serum) and 1% PSA (penicillin streptomycin amphotericin) in addition to 20 μg/ml NaB. Except for the group which was frozen for an extended period (6 months), the other cells were subjected to 4 repeating freeze-thaw processes. During each freezing process, one million cells were placed into one freezing tube and were frozen to −80° C. by using a freezing tank. The freezing tubes were transferred to −196° C. liquid nitrogen vapor one day later. After each freezing process, the cells were rapidly molten in a 37° C. water bath and viability analyses were performed with trypan blue.

In the case of sodium pentaborate pentahydrate [NaB], the “concentration at which toxic effect was observed” value [1] is reported as no less than 200 µg/mL, the “differentiation of the cells into chondrogenic lineage” value [2] is reported as “increase” and the “differentiation of the cells into odontogenic lineage” value [2] is reported as “increase”. The “stem cell differentiation into adipose tissue” value [2] was “slight decrease”, the “differentiation potentials of the cells (staining and immunocytochemistry analyses)” value ([2]; FIG. 3-4) was “no significant change” and the “toxic effect in cell viability analysis of frozen cells” value ([3]; 20 μg/ml NaB in the presence of 5% Me2SO, repeatedly frozen cells and cells stored long term (6 months)) was “decreased toxic effect”. The “cell viability over repeated freeze-thaw processes” value ([3]; 20 μg/ml NaB, 5% Me2SO in cryopreservation medium) was “started to increase during and after the second freeze-thaw process”.
